Source: US10745393B2, “Small molecular probes, processes and use thereof” (JAWAHARLAL NEHRU CENTRE FOR ADVANCED SCIENTIFIC RESEARCH, priority 2014, dated 2020)
Values joined by “and” are separate entries in the source; they are usually repeats but may differ in a detail not shown here. Identical values can stand only once.

What was measured:
[1] = Absorption, emission and quantum yield of probes without Aβ42 aggregates; assay type: physicochemical
(D1)mix [2] = test: Thermal denaturation (UV-melting) of dsDNA with probe TC; assay type: binding
[3] = molecular target: Aβ42 fibrillar aggregates (Homo sapiens, UniProt P05067); test: pH-dependent colorimetric and fluorometric response; assay type: binding; conditions: TC 10 μM, PBS buffer
Chain of Aβ42 fibrillar aggregates (P05067 672-713 limits assumed): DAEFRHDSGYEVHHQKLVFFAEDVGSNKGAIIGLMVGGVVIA

(AT)20 = test: Fluorescence response / quantum yield of probes with dsDNA (AT)20; assay type: binding
(D1)mix [4] = test: Fluorescence response / quantum yield of probes with dsDNA (D1)mix; assay type: binding
d(AATT)5 = test: Absorption / fluorescence response with self-complementary d(AATT)5 duplex; assay type: binding
[5] = molecular target: α-Synuclein (α-Syn) aggregates (Homo sapiens, UniProt P37840); test: Selectivity: fluorescence with α-synuclein aggregates; assay type: binding; conditions: α-Syn aggregates 20 μM
(AT)10 = test: Thermal denaturation (UV-melting) of dsDNA with probe TC; assay type: binding
(GC)10 = test: Agarose gel electrophoresis staining of dsDNA band; assay type: binding; conditions: 3% agarose gel, about 0.6 μg dsDNA, UV-illumination
Aβ42 aggregates = Aβ42 aggregates (Homo sapiens, UniProt P05067); test: Binding saturation assay (fluorescence) for binding constant
Chain of Aβ42 aggregates (P05067 672-713 limits assumed): as above

[6] = molecular target: T1, islet amyloid polypeptide (IAPP) aggregates (Homo sapiens, UniProt P10997); test: Selectivity: fluorescence with IAPP aggregates; assay type: binding; conditions: IAPP aggregates 20 μM
T1 construct: A 0.1 mg (Merck, calbiochem) sample of amylin is dissolved in 100 μL of acetonitrile; purchased Merck, calbiochem
T1 sequence (P10997 34-70 limits assumed): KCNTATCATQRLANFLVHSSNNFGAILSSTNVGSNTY

[7] = Tris-HCl buffer (100 mM, pH 7.4)
[8] = increasing concentrations of TC (1 μM to 20 μM), FIG. 10

## CCN(CC)c1ccc2cc(/C=C/c3sc4ccccc4[n+]3C)c(=O)oc2c1 [TC, (E)-3-(2-(N-methyl-benzo[d]thiazol-2-yl)vinyl)-7-(diethylamino)-2H-chromen-2-one]
[1]; Experiment
  absorption maximum TC/chloroform: 561 nm
  absorption maximum TC/water: 537 nm
[1]; PBS buffer (10 mM, pH 7.4)
  absorption maximum in absence of Aβ42 aggregates: 537 nm
[1]; PBS buffer, very weak fluorescence
  emission maximum in absence of Aβ42 aggregates: 638 nm
(D1)mix [2]
  Tm(DNA + TC): 61.6 °C
[3]
  pH range in which colorimetric and emission properties with Aβ42 aggregates are unaffected / usable: 3 to 8 and 2-8
(AT)20; TC 10 μM, DNA 0 to 12 μM
  fluorescence enhancement in presence of (AT)20: ~16 fold
(AT)20; [7]
  ΦF with (AT)20: 0.36
(AT)20; dye 10 μM, Tris-HCl buffer
  comparative fluorescence response in presence of (AT)20: excellent fluorescence marker
(AT)20; fixed dsDNA 12 μM
  probe concentration at which fluorescence reaches saturation: 18 to 22 µM
(AT)20; [8]
  fluorescence enhancement in presence of (AT)20: ~16 fold
(D1)mix [4]; TC 10 μM, DNA 0 to 12 μM
  fluorescence enhancement in presence of (D1)mix: ~6 fold
(D1)mix [4]; [7]
  ΦF with (D1)mix: 0.11
(D1)mix [4]; [8]
  fluorescence enhancement in presence of (D1)mix: ~6 fold
d(AATT)5
  fluorescence enhancement in presence of d(AATT)5: ~16 folds
[5]
  fluorescence enhancement with α-Syn aggregates: does not lead to significant fluorescence enhancements
(AT)10
  Tm(DNA + TC): 25.6 °C
(GC)10
  gel staining of (GC)10 band: not stained
Aβ42 aggregates; 2 μM of Aβ42 aggregates
  association constant Ka: 1.72e+07 M⁻¹
Aβ42 aggregates; fluorescence saturation curve, Aβ42 aggregates 10 μM (QC) or 2 μM (TC), read-out: dissociation constant Kd
  Kd: 0.058 ± 0.0012 µM
[6]
  fluorescence enhancement with IAPP aggregates: does not lead to significant fluorescence enhancements
